In ChEMBL document CHEMBL1151480, “Endiandric Acid Analogues from the Roots of Beilschmiedia erythrophloia” (2009):
Converted amounts (≈) assume the structure as drawn. The source made the active and inactive calls. No cut-off for these calls is given here.

Columns and labels:
[1] = system: Mycobacterium tuberculosis; assay: Antitubercular activity against Mycobacterium tuberculosis H37Rv after 2 weeks by proportion method; type: functional; details: 336 h
[2] = system: P388; assay: Growth inhibition of mouse P388 cells; type: functional, cell-based

Structure (SMILES) | MIC [1] [µg/mL] | growth inhibition (GI) [2]
CC[C@@H](CO)NCCN[C@@H](CC)CO [ETHAMBUTOL] | 6.25 (≈ 30.6 µM) | 
COC(=O)[C@@H]1C=C[C@@H]2C[C@H]3[C@H](CCCCCCCc4ccccc4)[C@H]4C=C[C@@H]1[C@@H]2[C@H]43 [ERYTHROPHLOIN C] | 50 (≈ 124 µM) | 
C=C1CC[C@H]2O[C@]2(C)[C@H](O)C[C@@H]2[C@@H]1CC2(C)C [SUBEROSOL B] | 28.9 (≈ 122 µM) | Active
